Data from patent publication US9586961B2, “Homopiperazine derivatives as protein tyrosine kinase inhibitors and pharmaceutical use thereof” (LEO PHARMA A/S, priority 2010, dated 2017).

Assays:
Assay type in all cases: biochemical
JAK2 = molecular target: T1, JAK2 (Homo sapiens, UniProt O60674); test: JAK2 kinase assay (HTRF, inhibition of phosphorylation of a synthetic peptide); details: catalytic domain, His-tag; 4 μM ATP (Km); read-out: JAK2 kinase inhibitory activity (EC50)
T1 construct: All four purified enzymes contain only the catalytic domain; His (N); purchased Carna Biosciences, Inc; host or cells: baculovirus expression system
T1 sequence (O60674 849-1124 limits assumed): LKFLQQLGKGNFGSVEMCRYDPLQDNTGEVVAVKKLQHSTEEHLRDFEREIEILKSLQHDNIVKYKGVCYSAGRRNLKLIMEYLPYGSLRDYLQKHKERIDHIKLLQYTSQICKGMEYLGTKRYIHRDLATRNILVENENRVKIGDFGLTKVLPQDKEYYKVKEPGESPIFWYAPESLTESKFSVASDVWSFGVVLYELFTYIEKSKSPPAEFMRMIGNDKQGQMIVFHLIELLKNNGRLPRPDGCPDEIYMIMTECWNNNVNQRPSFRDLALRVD
Method in brief: (§1)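 Baculovirus-expressed catalytic domains (GST-JAK1 aa 850-1154, GST-TYK2 aa 871-1187, His-JAK2, His-JAK3) phosphorylate 1 μM biotin-TK peptide 20-30 min at RT in 50 mM Hepes pH 7.0 with ATP at Km: JAK1 7 μM, JAK2 4 μM, JAK3 2 μM, TYK2 13 μM; 0.75% DMSO. Stopped with EDTA, HTRF read overnight.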

JAK3 = molecular target: T2, JAK3 (Homo sapiens, UniProt P52333); test: JAK3 kinase assay (HTRF, inhibition of phosphorylation of a synthetic peptide); details: catalytic domain, His-tag; 2 μM ATP (Km); read-out: JAK3 kinase inhibitory activity (EC50)
T2 construct: All four purified enzymes contain only the catalytic domain; His (N); purchased Carna Biosciences, Inc; host or cells: baculovirus expression system
T2 sequence (P52333 822-1111 limits assumed): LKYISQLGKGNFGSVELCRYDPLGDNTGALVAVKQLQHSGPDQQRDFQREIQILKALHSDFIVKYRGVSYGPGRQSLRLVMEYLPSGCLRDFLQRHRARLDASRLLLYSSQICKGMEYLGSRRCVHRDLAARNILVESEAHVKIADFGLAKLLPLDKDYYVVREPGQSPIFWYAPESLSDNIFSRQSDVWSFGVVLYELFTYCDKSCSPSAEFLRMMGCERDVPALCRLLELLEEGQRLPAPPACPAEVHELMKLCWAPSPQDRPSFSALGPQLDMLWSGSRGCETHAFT
Method in brief: as §1

TYK2 = molecular target: T3, TYK2 (Homo sapiens, UniProt P29597); test: TYK2 kinase assay (HTRF, inhibition of phosphorylation of a synthetic peptide); details: catalytic domain aa 871-1187, GST-tag; 13 μM ATP (Km); read-out: TYK2 kinase inhibitory activity (EC50)
T3 construct: JAK1 (aa 850-1154) and TYK2 (aa 871-1187) are expressed with an N-terminally fused GST-tag; GST (N); purchased Carna Biosciences, Inc; host or cells: baculovirus expression system
T3 sequence (P29597 871-1187): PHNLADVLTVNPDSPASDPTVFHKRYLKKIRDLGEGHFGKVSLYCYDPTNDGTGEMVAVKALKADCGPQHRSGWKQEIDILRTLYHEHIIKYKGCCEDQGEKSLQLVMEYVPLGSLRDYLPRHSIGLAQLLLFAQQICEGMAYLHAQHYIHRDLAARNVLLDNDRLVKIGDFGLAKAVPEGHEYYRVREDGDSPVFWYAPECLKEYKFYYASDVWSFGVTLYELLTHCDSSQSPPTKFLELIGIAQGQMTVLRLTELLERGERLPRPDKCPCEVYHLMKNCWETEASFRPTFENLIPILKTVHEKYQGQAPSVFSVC
Description: JAK1, JAK2, JAK3 and TYK2 Kinase Assays:
Human baculovirus-expressed JAK1, 2, 3 and TYK2 were purchased from Carna Biosciences, Inc. All four purified enzymes contain only the catalytic domain. JAK1 (aa 850-1154) and TYK2 (aa 871-1187) are expressed with an N-terminally fused GST-tag, and JAK2 and JAK3 with an N-terminally fused His-tag. Inhibition of phosphorylation of a synthetic peptide was measured in an HTRF-based assay using the TK substrate-Biotin from the CisbioHTRFKinEASE TK kit. First, 2 μl of TK solution (TK substrate-biotin in kinase buffer [1× enzymatic buffer from HTRFKinEASE TK kit, 1 mM DTT]) is added to a plate containing 1 μl prediluted compound (final assay concentration DMSO: 0.75%). Then, 5 μl kinase-ATP mix (prepared in kinase buffer) is added to the wells and the plates are incubated at RT for 20-30 min. For all four kinases a concentration of ATP that corresponded to the Km for ATP was used. The final concentrations of buffers, substrate, kinase and ATP were: JAK1: 50 mMHepes buffer pH 7.0, 0.01% BSA, 10 mM MgCl2, 1 mM DTT, 7 μM ATP, 50 nMSEB, 1 μM TK Substrate-Biotin and 5 ng JAK1; JAK2: 50 mM Hepes buffer pH 7.0, 0.01% BSA, 5 mM MgCl2, 1 mM DTT, 4 μM ATP, 1 μM TK Substrate-Biotin and 0.1 ng JAK2; JAK3: 50 mMHepes buffer pH 7.0, 0.01% BSA, 5 mM MgCl2, 1 mM DTT, 2 μM ATP, 1 μM TK Substrate-Biotin and 0.3 ng JAK3; TYK2: 50 mMHepes buffer pH 7.0, 0.01% BSA, 5 mM MgCl2, 1 mM DTT, 13 μM ATP, 50 nMSEB, 1 μM TK Substrate-Biotin and 0.8 ng TYK2. Thereafter, the kinase reaction is stopped by adding 4 μl detection mix (final concentrations: 50 mM Hepes buffer pH 7.0, 0.01% BSA, 0.8 M KF, 20 mM EDTA, 42 nM Streptavidin-XL665 and 1:400 STKAbCryptate) and the plates are incubated overnight in the dark. The HTRF signal is read using an Envision plate reader.

JAK1 = molecular target: T4, JAK1 (Homo sapiens, UniProt P23458); test: JAK1 kinase assay (HTRF, inhibition of phosphorylation of a synthetic peptide); details: catalytic domain aa 850-1154, GST-tag; 7 μM ATP (Km); read-out: JAK1 kinase inhibitory activity (EC50)
T4 construct: JAK1 (aa 850-1154) and TYK2 (aa 871-1187) are expressed with an N-terminally fused GST-tag; GST (N); purchased Carna Biosciences, Inc; host or cells: baculovirus expression system
T4 sequence (P23458 850-1154): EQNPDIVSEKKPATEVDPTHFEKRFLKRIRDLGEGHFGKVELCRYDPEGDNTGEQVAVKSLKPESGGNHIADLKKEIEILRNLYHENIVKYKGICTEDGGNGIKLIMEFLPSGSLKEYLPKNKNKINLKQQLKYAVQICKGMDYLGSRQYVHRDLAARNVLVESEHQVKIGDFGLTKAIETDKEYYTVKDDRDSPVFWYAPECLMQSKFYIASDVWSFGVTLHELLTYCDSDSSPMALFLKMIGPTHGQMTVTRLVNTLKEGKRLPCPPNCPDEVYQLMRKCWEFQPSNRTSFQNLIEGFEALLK
Method in brief: as §1

SMILES	EC50 (JAK2) [µM]	EC50 (JAK3) [µM]	EC50 (TYK2) [µM]	EC50 (JAK1) [µM]
N#Cc1csc(C(=O)N2CCCN(c3ncnc4[nH]ccc34)CC23CC3)c1 [Example 119, 5-[5-(7H-pyrrolo[2,3-d]pyrimidin-4-yl)-5,9-diazaspiro[2.6]nonane-9-carbonyl]thiophene-3-carbonitrile]	< 0.1	0.1 to 1	0.1 to 1	< 0.1
CCCCC(=O)Nc1nc(N2CCNCC3(CC3)C2)c2cc[nH]c2n1 [Example 294]	> 1	> 1	> 1	> 1
N#CCOc1ccc(C(=O)N2CCN(c3ncnc4[nH]ccc34)CC3(CC3)C2)cc1 [Example 15, 2-[4-[5-(7H-pyrrolo[2,3-d]pyrimidin-4-yl)-5,8-diazaspiro[2.6]nonane-8-carbonyl]phenoxy]acetonitrile]	0.1 to 1	0.1 to 1	> 1	0.1 to 1
NS(=O)(=O)c1ccc(/C=C/C(=O)N2CCN(c3ncnc4[nH]ccc34)CC3(CC3)C2)cc1 [Example 54, 4-[(E)-3-oxo-3-[5-(7H-pyrrolo[2,3-d]pyrimidin-4-yl)-5,8-diazaspiro[2.6]nonan-8-yl]prop-1-enyl]benzenesulfonamide]	< 0.1	0.1 to 1	0.1 to 1	< 0.1
COc1ncccc1C(=O)N1CCN(c2ncnc3[nH]ccc23)CC2(CC2)C1 [Example 4, (2-Methoxypyridin-3-yl)-[8-(7H-pyrrolo[2,3-d]pyrimidin-4-yl)-5,8-diazaspiro[2.6]non-5-yl]methanone]	> 1	> 1	> 1	> 1
N#CCCNS(=O)(=O)c1ccc(C(=O)N2CCN(c3ncnc4[nH]ccc34)CC3(CC3)C2)cc1 [Example 69, N-(2-cyanoethyl)-4-[5-(7H-pyrrolo[2,3-d]pyrimidin-4-yl)-5,8-diazaspiro[2.6]nonane-8-carbonyl]benzenesulfonamide]	0.1 to 1	0.1 to 1	> 1	0.1 to 1
O=C(Cc1ccc(Cl)cc1)N1CCN(c2ncnc3[nH]ccc23)CC2(CC2)C1 [Example 125, 2-(4-chlorophenyl)-1-[5-(7H-pyrrolo[2,3-d]pyrimidin-4-yl)-5,8-diazaspiro[2.6]nonan-8-yl]ethanone]	< 0.1	0.1 to 1	0.1 to 1	< 0.1
Cc1ccc(S(=O)(=O)N2CC3(CC3)CN(c3ncnc4[nH]ccc34)CC2C)cc1 (centres unmarked) [Example 98, 4-[7-methyl-8-(p-tolylsulfonyl)-5,8-diazaspiro[2.6]nonan-5-yl]-7H-pyrrolo[2,3-d]pyrimidine]	> 1	> 1	> 1	> 1
NS(=O)(=O)c1ccc(OCC(=O)N2CCN(c3ncnc4[nH]ccc34)CC3(CC3)C2)cc1 [Example 63, 4-[2-oxo-2-[5-(7H-pyrrolo[2,3-d]pyrimidin-4-yl)-5,8-diazaspiro[2.6]nonan-8-yl]ethoxy]benzenesulfonamide]	< 0.1	< 0.1	< 0.1	< 0.1
Cc1sc(C(=O)N2CCN(c3ncnc4[nH]ccc34)CC3(CC3)C2)cc1S(N)(=O)=O [Example 24, 2-methyl-5-[5-(7H-pyrrolo[2,3-d]pyrimidin-4-yl)-5,8-diazaspiro[2.6]nonane-8-carbonyl]thiophene-3-sulfonamide]	< 0.1	< 0.1	0.1 to 1	< 0.1
Cc1cc(C(=O)N2CCN(c3ncnc4[nH]ccc34)CC3(CC3)C2)ccc1S(N)(=O)=O [Example 29, 2-methyl-4-[5-(7H-pyrrolo[2,3-d]pyrimidin-4-yl)-5,8-diazaspiro[2.6]nonane-8-carbonyl]benzenesulfonamide]	0.1 to 1	0.1 to 1	> 1	0.1 to 1
O=C(c1ccc(S(=O)(=O)NCCc2cccs2)cc1)N1CCN(c2ncnc3[nH]ccc23)CC2(CC2)C1 [Example 50, 4-[5-(7H-pyrrolo[2,3-d]pyrimidin-4-yl)-5,8-diazaspiro[2.6]nonane-8-carbonyl]-N-[2-(2-thienyl)ethyl]benzenesulfonamide]	0.1 to 1	0.1 to 1	> 1	0.1 to 1
CC1CN(c2ncnc3[nH]ccc23)CC2(CC2)CN1C(=O)c1ccccc1 (centres unmarked) [Example 284, [7-methyl-5-(7H-pyrrolo[2,3-d]pyrimidin-4-yl)-5,8-diazaspiro[2.6]nonan-8-yl]-phenyl-methanone]	> 1	> 1	> 1	> 1
NS(=O)(=O)c1ccc(CC(=O)N2CCN(c3ncnc4[nH]ccc34)CC3(CC3)C2)cc1 [Example 20, 4-[2-oxo-2-[5-(7H-pyrrolo[2,3-d]pyrimidin-4-yl)-5,8-diazaspiro[2.6]nonan-8-yl]ethyl]benzenesulfonamide]	< 0.1	< 0.1	0.1 to 1	< 0.1
N#Cc1c[nH]c(C(=O)N2CCCN(c3ncnc4[nH]ccc34)CC23CC3)c1 [Example 209, 5-[5-(7H-pyrrolo[2,3-d]pyrimidin-4-yl)-5,9-diazaspiro[2.6]nonane-9-carbonyl]-1H-pyrrole-3-carbonitrile]	< 0.1	< 0.1	< 0.1	< 0.1
N#Cc1ccccc1C(=O)N1CCN(c2ncnc3[nH]ccc23)CC2(CC2)C1 [Example 7, 2-[8-(7H-pyrrolo[2,3-d]pyrimidin-4-yl)-5,8-diazaspiro[2.6]nonane-5-carbonyl]benzonitrile]	0.1 to 1	> 1	> 1	> 1
O=C(Cc1ccc(I)cc1)N1CCN(c2ncnc3[nH]ccc23)CC2(CC2)C1 [Example 66, 2-(4-iodophenyl)-1-[5-(7H-pyrrolo[2,3-d]pyrimidin-4-yl)-5,8-diazaspiro[2.6]nonan-8-yl]ethanone]	< 0.1	0.1 to 1	0.1 to 1	< 0.1
NS(=O)(=O)CCCC(=O)N1CCN(c2ncnc3[nH]ccc23)CC2(CC2)C1 [Example 39, 4-oxo-4-[5-(7H-pyrrolo[2,3-d]pyrimidin-4-yl)-5,8-diazaspiro[2.6]nonan-8-yl]butane-1-sulfonamide]	< 0.1	< 0.1	> 1	< 0.1
N#Cc1ccc(C(=O)N2CCCN(c3ncnc4[nH]ccc34)CC23CC3)cc1 [Example 56, 4-[5-(7H-pyrrolo[2,3-d]pyrimidin-4-yl)-5,9-diazaspiro[2.6]nonane-9-carbonyl]benzonitrile]	< 0.1	0.1 to 1	> 1	< 0.1
CC(C)(C#N)C(=O)N1CCN(c2ncnc3[nH]ccc23)CC2(CC2)C1 [Example 11, 2,2-Dimethyl-3-oxo-3-[8-(7H-pyrrolo[2,3-d]pyrimidin-4-yl)-5,8-diazaspiro[2.6]non-5-yl]propionitrile]	0.1 to 1	0.1 to 1	> 1	> 1
